Where two headings read alike, the source gives them in different places.
Key:
[1] = system: PrP^Sc in dividing ScN2a-cl3 cells; assay type: cell-based, mouse; settings: for Inhibition of Baseline PrP^5c (%) Dividing Cells ELISA: SPC assay
[2] = system: PrP^Sc in nondividing ScN2a-cl3 cells; assay type: cell-based, mouse; settings: SPC assay, nondividing cells
[3] = read-out: Potency (μM) ELISA (EC50), FDA-approved drugs, ScN2a-c13 assay, dividing cells
[4] = FDA-approved drugs, ScN2a-c13 assay, dividing cells, read-out: Potency (μM) ELISA (EC50)
[5] = Table 29, 2-AMT analogs tested for potency, usually n = 3 or more

Compound | Inhibition of Baseline PrP^5c (%) Dividing Cells ELISA ([1]; dividing cells) | Dividing Cells V (cell viability percentages) (N2a-cl3 cells) | Non-dividing Cells V (cell viability percentages) (N2a-cl3 cells) | Inhibition of Baseline PrP^5c (%) Non-dividing Cells ELISA [2] | further results
CC(=O)c1ccc2c(c1)N(CCCN(C)C)c1ccccc1S2 [Acepromazine] |  |  |  |  | EC50 [1, 3]: 6.93 µM; Potency (μM) Cell Viability (N2a-cl3 cells; mouse): >10 µM
CCCCc1oc2ccccc2c1C(=O)c1cc(I)c(OCCN(CC)CC)c(I)c1 [Amiodarone] |  |  |  |  | Potency (μM) Cell Viability (N2a-cl3 cells; mouse): >10 µM
CN1CCc2cccc3c2[C@H]1Cc1ccc(O)c(O)c1-3 [Apomorphine] |  |  |  |  | EC50 [1, 3]: > 10 µM
COc1ccccc1OCCNCC(O)COc1cccc2[nH]c3ccccc3c12 (centres unmarked) [Carvedilol] |  |  |  |  | EC50 [1, 3]: 2.28 µM; Potency (μM) Cell Viability (N2a-cl3 cells; mouse): 6.096 µM
Nc1c(/N=N/c2ccc(-c3ccc(/N=N/c4cc(S(=O)(=O)O)c5ccccc5c4N)cc3)cc2)cc(S(=O)(=O)O)c2ccccc12 [Congo Red] |  |  |  |  | EC50 [1, 3]: 0.452 µM; Potency (μM) Cell Viability (N2a-cl3 cells; mouse): >10 µM
CN1C[C@H](C(=O)N[C@]2(C)O[C@@]3(O)[C@@H]4CCCN4C(=O)[C@H](Cc4ccccc4)N3C2=O)C[C@@H]2c3cccc4[nH]cc(c34)C[C@H]21 [Dihydroergotamine] |  |  |  |  | EC50 [1, 3]: 6.44 µM; Potency (μM) Cell Viability (N2a-cl3 cells; mouse): >10 µM
CCOc1ccc(/N=N/c2ccc(N)cc2N)cc1 [Ethoxazine] |  |  |  |  | EC50 [1, 4]: 4.76 µM; Potency (μM) Cell Viability (N2a-cl3 cells): >10 µM
Cc1cccc(Nc2nc(-c3ccncc3)cs2)n1 [IND7, (6-Methyl-pyridin-2-yl)-(4-pyridin-4-yl-thiazol-2-yl)-amine] |  |  |  |  | EC50 ([1]; AMT analogs tested for potency): 1 µM; EC50 [1, 5]: 1 µM
Cc1ccc(Nc2nc(-c3ccncc3)cs2)nc1 [IND29, (5-Methyl-pyridin-2-yl)-(4-pyridin-4-yl-thiazol-2-yl)-amine] |  |  |  |  | EC50 ([1]; AMT analogs tested for potency): 1.57 µM; EC50 [1, 5]: 1.57 µM
Cc1ccc(Nc2nc(-c3c(-c4ccccc4)noc3C)cs2)nc1 [IND36, [4-(5-Methyl-3-phenyl-isoxazol-4-yl)-thiazol-2-yl]-(5-methyl-pyridin-2-yl)-amine] |  |  |  |  | EC50 ([1]; AMT analogs tested for potency): > 32 µM; EC50 [1, 5]: > 32 µM
COc1ccc(-c2csc(Nc3cc(C)ccn3)n2)cc1OC [IND42, [4-(3,4-Dimethoxy-phenyl)-thiazol-2-yl]-(4-methyl-pyridin-2-yl)-amine] |  |  |  |  | EC50 ([1]; AMT analogs tested for potency): 1 µM; EC50 [1, 5]: 1 µM
COc1ccc(-c2csc(Nc3ccc(C(F)(F)F)cn3)n2)cc1OC [IND43, [4-(3,4-Dimethoxy-phenyl)-thiazol-2-yl]-(5-trifluoromethyl-pyridin-2-yl)-amine] |  |  |  |  | EC50 ([1]; AMT analogs tested for potency): 2.53 µM; EC50 [1, 5]: 2.53 µM
Cc1ccnc(Nc2nc(-c3cc(-c4ccc(Cl)cc4)no3)cs2)c1 [IND64, {4-[3-(4-Chloro-phenyl)-isoxazol-5-yl]-thiazol-2-yl}-(4-methyl-pyridin-2-yl)-amine] |  |  |  |  | EC50 ([1]; AMT analogs tested for potency): 0.85 µM; EC50 [1, 5]: 0.85 µM
Cc1ccc(Nc2nc(-c3ccc(-c4ccccn4)s3)cs2)nc1 [IND76, (5-Methyl-pyridin-2-yl)-[4-(5-pyridin-2-yl-thiophen-2-yl)-thiazol-2-yl]-amine] |  |  |  |  | EC50 ([1]; AMT analogs tested for potency): 1.23 µM; EC50 [1, 5]: 1.23 µM
COc1ccc(-c2csc(Nc3cnccn3)n2)cc1OC [IND82, [4-(3,4-Dimethoxy-phenyl)-thiazol-2-yl]-pyrazin-2-yl-amine] |  |  |  |  | EC50 ([1]; AMT analogs tested for potency): 15.6 µM; EC50 [1, 5]: 15.6 µM
COc1ccc(-c2csc(Nc3cc4ccccc4cn3)n2)cc1 [IND86, Isoquinolin-3-yl-[4-(4-methoxy-phenyl)-thiazol-2-yl]-amine] |  |  |  |  | EC50 ([1]; AMT analogs tested for potency): 0.342 µM; EC50 [1, 5]: 0.342 µM
COc1ccc(-c2csc(Nc3ccccn3)n2)cc1OC [IND135, [4-(3,4-Dimethoxy-phenyl)-thiazol-2-yl]-pyridin-2-yl-amine] |  |  |  |  | EC50 ([1]; AMT analogs tested for potency): 1.23 µM
CCN1CCN(c2ccc(Nc3ccnc4cc5ccccc5cc34)cc2)CC1 [IND-2118] | 76% | 25% | 24% | 51% | 

Compound | Inhibition of Baseline PrP^5c (%) Dividing Cells ELISA ([1]; dividing cells) | Dividing Cells V (cell viability percentages) (N2a-cl3 cells) | Non-dividing Cells V (cell viability percentages) (N2a-cl3 cells) | Inhibition of Baseline PrP^5c (%) Non-dividing Cells ELISA [2] | further results
Cc1ccc2[nH]c3c(c2c1)CCCC3NCC12CC3CC(CC(C3)C1)C2 (centres unmarked) [IND-4176] | 98% | 9% |  | 53% | 
Cc1ccc2[nH]c3c(c2c1)CCCC3NC1CCCCC1 (centres unmarked) [IND-5381] | 27% | 12% | 16% | 48% | 
O=C(Nc1ccc(Cl)cc1)Nc1cc(Cl)cc(Cl)c1 [IND-5942] | 91% | 3% | 8% | 51% | 
CC(=O)c1ccc(N2CCN(Cc3cccc(Br)c3)CC2)cc1 [IND-7046] | 67% | 14% | 2% | 39% | 
CC(=O)c1ccc(N2CCN(Cc3ccc(Br)s3)CC2)cc1 [IND-7190] | 97% | 8% | 12% | 34% | 
CC(=O)c1ccc(N2CCN(Cc3cccc(Cl)c3)CC2)cc1 [IND-7486] | 84% | 6% | 12% | 31% | 
O=C(Nc1ccc(F)c(Cl)c1)Nc1ccc(Cl)c(Cl)c1 [IND-8255] | 92% | 2% | 11% | 61% | 
O=C(Nc1ccccc1)Nc1ccc(F)c(Cl)c1 [IND-8314] | 87% | 7% | 17% | 56% | 
CNCCc1c(-c2ccccc2)n(-c2ccccc2)c2ccccc12 [IND-10094] | 81% | 19% | 21% | 46% | 
O=C(Nc1ccc(Cl)c(Cl)c1)NC(CC(=O)c1ccc([N+](=O)[O-])cc1)C(Cl)(Cl)Cl (centres unmarked) [IND-10851] | 83% | 15% | 19% | 61% | 
COc1cc(CN2CCN(c3cccc(C)c3C)CC2)cc(Br)c1O [IND-15461] | 22% |  | 3% | 48% | 
Cc1ccc2c(c1)c1c(n2CC(O)CO)C(=O)CCC1 (centres unmarked) [IND-15474] | 14% | 11% | 9% | 39% | 
CC(=O)c1ccc(N2CCN(Cc3c(C)n(C)n(-c4ccccc4)c3=O)CC2)cc1 [IND-19672] | 64% |  |  | 35% | 
COc1ccc2[nH]c3c(OC)ncnc3c2c1 [IND-22103] | 81% |  |  | 37% | 
Nc1c(C(=O)Nc2cc(F)ccc2F)sc2nc(-c3ccncc3)ccc12 [IND-0024575] |  |  |  |  | EC50 ([1]; read-out: Antiprion activity EC50, thienopyridine analogs): 3.49 µM
COc1ccc2cc1Oc1ccc(cc1)C[C@H]1c3cc(c(OC)cc3CCN1C)Oc1c(OC)c(OC)cc3c1[C@H](C2)N(C)CC3 [Tetrandine] |  |  |  |  | EC50 [1, 4]: 2.15 µM; Potency (μM) Cell Viability (N2a-cl3 cells): 5.009 µM
Enoxaparin |  |  |  |  | Potency Cell Viability, mg/L (N2a-cl3 cells): >10 (mg/L)
